In patent US6800648B2, “Antipsychotic aminomethyl derivatives of 7,8-dihydro-3H-1,6,9-trioxa-3-AZA-cyclopenta[a]naphthalen-2-one” (Wyeth, priority 2001, dated 2004):
Structures can show the parent of a compound that is named as a salt.

What was measured:
dopamine D2 receptor = biological target: T1, dopamine D2 receptor (Rattus norvegicus, UniProt P61169); assay: Dopamine D2 receptor affinity, 3H-quinpirole binding in homogenized rat striatal brain tissue
T1 construct: from tissue; host or cells: rat striatal brain tissue homogenate
Procedure: Affinity for the dopamine D2 receptor was established by a modification of the standard experimental test procedure of Seemen and Schaus, European Journal of Pharmacology 203: 105-109, 1991, wherein homogenized rat striatal brain tissue is incubated with ^3H-quinpirole and various concentrations of test compound, filtered and washed and counted in a Betaplate scintillation counter.

mouse locomotor activity = assay: Reduction of mouse locomotor activity (functional antagonism of dopamine receptors in vivo); settings: mice (male, CF-1), sc, horizontal activity counts 10 to 20 minutes after dosing
Procedure: The antipsychotic activity of the compounds of the invention was established by a determination of functional antagonism of dopamine receptors in vivo, specifically the compounds' ability to reduce mouse locomotor activity according to the method of Martin and Bendensky, J. Pharmacol. Exp. Therap. 229: 706-711, 1984, in which mice (male, CF-1, Charles River, 20-30 g) were injected with vehicle or various doses of each drug and locomotor activity was measured for 30 minutes using automated infrared activity monitors (Omnitech—8×8 inch open field) located in a darkened room. ED50's were calculated from the horizontal activity counts collected from 10 to 20 minutes after dosing using a nonlinear regression analysis with inverse prediction.

T1 sequence (P61169 whole entry): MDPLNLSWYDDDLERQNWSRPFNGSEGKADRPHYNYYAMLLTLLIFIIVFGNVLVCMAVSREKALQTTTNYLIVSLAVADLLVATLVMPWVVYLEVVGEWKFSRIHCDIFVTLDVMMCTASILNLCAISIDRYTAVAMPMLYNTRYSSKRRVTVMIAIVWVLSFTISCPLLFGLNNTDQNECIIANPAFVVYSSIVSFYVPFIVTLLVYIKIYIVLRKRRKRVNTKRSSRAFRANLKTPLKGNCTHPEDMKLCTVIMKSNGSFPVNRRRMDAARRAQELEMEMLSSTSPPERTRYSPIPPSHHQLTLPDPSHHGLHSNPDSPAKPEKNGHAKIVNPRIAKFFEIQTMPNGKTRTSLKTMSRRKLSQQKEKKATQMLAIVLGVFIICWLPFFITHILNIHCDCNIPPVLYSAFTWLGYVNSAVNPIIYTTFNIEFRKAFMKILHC

Row | melting point [°C] | IC50 (dopamine D2 receptor) [nM] | SMILES | ED50 (mouse locomotor activity) [mg/kg]
1 | 202 | – | O=c1[nH]c2ccc3c(c2o1)OC(CN1CC=C(c2c[nH]c4ccccc24)CC1)CO3 (stereo not shown) | –
2 | > 250 | – | NCC1COc2ccc3[nH]c(=O)oc3c2O1 (stereo not shown) (as salt: HCl) [Example 1, 8-Aminomethyl-7,8-dihydro-3H-1,6,9-trioxa-3-aza-cyclopenta[a]naphthalen-2-one] | –
3 | 220 | – | O=c1[nH]c2ccc3c(c2o1)OC(CNCc1ccccc1)CO3 (stereo not shown) (as salt: fumarate) (hydrate or solvate) [Example 2, 8-(Benzylamino-methyl)-7,8-dihydro-3H-1,6,9-trioxa-3-aza-cyclopenta[a]naphthalen-2-one] | –
4 | 215 to 218 | – | O=c1[nH]c2ccc3c(c2o1)OC(CNCCCCc1ccccc1)CO3 (stereo not shown) (as salt: fumarate) (hydrate or solvate) [Example 4, 8-[(4-Phenyl-butylamino)-methyl]-7,8-dihydro-3H-1,6,9-trioxa-3-aza-cyclopenta[a]naphthalen-2-one] | –
5 | – | 3.7 | NCC1COc2ccc3[nH]c(=O)oc3c2O1 (stereo not shown) [Example 1, 8-Aminomethyl-7,8-dihydro-3H-1,6,9-trioxa-3-aza-cyclopenta[a]naphthalen-2-one] | –
6 | – | 0.16 | O=c1[nH]c2ccc3c(c2o1)OC(CNCc1ccccc1)CO3 (stereo not shown) [Example 2, 8-(Benzylamino-methyl)-7,8-dihydro-3H-1,6,9-trioxa-3-aza-cyclopenta[a]naphthalen-2-one] | –
7 | 210 | 475 | O=c1[nH]c2ccc3c(c2o1)OC(CN(Cc1ccccc1)Cc1ccccc1)CO3 (stereo not shown) [Example 3, 8-[(Dibenzylamino)-methyl]-7,8-dihydro-3H-1,6,9-trioxa-3-aza-cyclopenta[a]naphthalen-2-one] | ≥ 50
8 | – | 2 | O=c1[nH]c2ccc3c(c2o1)OC(CNCCCCc1ccccc1)CO3 (stereo not shown) [Example 4, 8-[(4-Phenyl-butylamino)-methyl]-7,8-dihydro-3H-1,6,9-trioxa-3-aza-cyclopenta[a]naphthalen-2-one] | –
